Test results from ChEMBL document CHEMBL1641393, “Triterpenoids and steroids from the fruits of Melia toosendan and their cytotoxic effects on two human cancer cell lines” (J Nat Prod, 2010).
Converted amounts (≈) assume the structure as drawn. The source made the active and inactive calls. The calls are words filed in the database; no cut-off is given here.

How the values were obtained:
[1] = tested on: Lipaphis erysimi; test: Insecticidal activity against Lipaphis erysimi Kaltenbach; type: functional
[2] = tested on: U2OS; test: Cytotoxicity against human U2OS cells after 36 hrs by MTT assay; type: functional, cell-based
[3] = tested on: MCF7; test: Cytotoxicity against human MCF7 cells after 36 hrs by MTT assay; type: functional, cell-based; conditions: MCF7, 36 h
[4] = tested on: P388; test: Cytotoxicity against mouse P388 cells; type: functional; conditions: read-out: ED50 (the source's name)

| Compound | Activity [1] | IC50 [2] | IC50 [3] | EC50 [4] |
| --- | --- | --- | --- | --- |
| CC[C@H](CC[C@](C)(O)[C@H]1[C@@H](O)C[C@H]2[C@@H]3[C@H](O)C=C4C[C@@H](O)CC[C@]4(C)[C@H]3CC[C@@]21C)C(C)C | inactive | 23.2 µg/mL (≈ 50.1 µM) | > 50 µg/mL |  |
| C=C(C)C(CC[C@@H](C)[C@@H]1[C@@H](O)C[C@]2(C)C3=CC[C@H]4C(C)(C)CCC[C@]4(C)[C@H]3CC[C@@]12C)OO (mixture of isomers) [MELIASENIN K] | inactive | 7.2 µg/mL | 2.4 µg/mL |  |
| C=C(C)C(CC[C@@H](C)[C@@H]1[C@@H](O)C[C@]2(C)C3=CC[C@H]4C(C)(C)C(=O)CC[C@]4(C)[C@H]3CC[C@@]12C)OO (mixture of isomers) [MELIASENIN L] | inactive | 9.5 µg/mL | 9.8 µg/mL |  |
| C[C@H](C/C=C/C(C)(C)OO)[C@@H]1[C@@H](O)C[C@]2(C)C3=CC[C@H]4C(C)(C)[C@@H](O)CC[C@]4(C)[C@H]3CC[C@@]12C (relative stereo) [MELIASENIN I] | inactive | 9.5 µg/mL (≈ 20 µM) | 11.2 µg/mL (≈ 23.6 µM) |  |
| C[C@H](C/C=C/C(C)(C)OO)[C@@H]1[C@@H](O)C[C@]2(C)C3=CC[C@H]4C(C)(C)C(=O)CC[C@]4(C)[C@H]3CC[C@@]12C (relative stereo) [MELIASENIN J] | inactive | 14.3 µg/mL (≈ 30.3 µM) | 1.1 µg/mL (≈ 2.33 µM) |  |
| CC(C)C(C)CC[C@](C)(O)[C@H]1[C@@H](O)C[C@H]2[C@@H]3[C@H](O)C=C4C[C@@H](O)CC[C@]4(C)[C@H]3CC[C@@]21C (single isomer, unassigned) | inactive | 9.4 µg/mL (≈ 20.9 µM) | 47.4 µg/mL (≈ 106 µM) |  |
| O=c1[nH]cc(F)c(=O)[nH]1 [FLUOROURACIL] |  | 7.2 µg/mL (≈ 55.4 µM) | 34 µg/mL (≈ 261 µM) |  |
| CC(C)=CCC[C@@H](C)[C@@H]1[C@@H](O)C[C@]2(C)C3=CC[C@H]4C(C)(C)C(=O)CC[C@]4(C)[C@H]3CC[C@@]12C [KULINONE] | inactive | 6.9 µg/mL (≈ 15.7 µM) | 42.5 µg/mL (≈ 96.4 µM) | 1.7 µg/mL (≈ 3.86 µM) |
| CC(C)(/C=C/C[C@H]1C(=O)O[C@H]2C[C@]3(C)C4=CC[C@H]5C(C)(C)C(=O)CC[C@]5(C)[C@H]4CC[C@@]3(C)[C@@H]21)OO [MELIASENIN M] | inactive | 29.2 µg/mL (≈ 60.2 µM) | 16.4 µg/mL (≈ 33.8 µM) |  |
| C=C(C)[C@H](CC[C@H]1C(=O)O[C@H]2C[C@]3(C)C4=CC[C@H]5C(C)(C)C(=O)CC[C@]5(C)[C@H]4CC[C@@]3(C)[C@@H]21)OO [MELIASENIN N] | inactive | 8.8 µg/mL (≈ 18.2 µM) | 3 µg/mL (≈ 6.19 µM) |  |
| C=C(C)[C@@H](CC[C@H]1C(=O)O[C@H]2C[C@]3(C)C4=CC[C@H]5C(C)(C)C(=O)CC[C@]5(C)[C@H]4CC[C@@]3(C)[C@@H]21)OO [MELIASENIN O] | inactive | 23.9 µg/mL (≈ 49.3 µM) | 2.3 µg/mL (≈ 4.75 µM) |  |
| CO[C@H]1O[C@@H]([C@@H]2OC2(C)C)C[C@H]1[C@@H]1CC[C@]2(C)C3=CC[C@H]4C(C)(C)[C@@H](O)CC[C@]4(C)[C@H]3CC[C@@]12C [MELIASENIN P] | inactive | 48.7 µg/mL (≈ 100 µM) | 6.4 µg/mL (≈ 13.1 µM) |  |
| CCCCCCCCCCCCCCCC(=O)O[C@H]1CC[C@]2(C)[C@H]3CC[C@@]4(C)[C@H]([C@@H]5C[C@H]([C@H](O)C(C)(C)O)O[C@@H]5OC)CC[C@]4(C)C3=CC[C@H]2C1(C)C [MELIASENIN Q] | inactive | 3.9 µg/mL (≈ 5.25 µM) | > 50 µg/mL |  |
| COC(=O)[C@H](C/C=C/C(C)(C)OO)[C@@H]1[C@@H](O)C[C@]2(C)C3=CC[C@H]4C(C)(C)C(=O)CC[C@]4(C)[C@H]3CC[C@@]12C [MELIASTATIN 3] | inactive | 31.1 µg/mL (≈ 60.2 µM) | 48.6 µg/mL (≈ 94.1 µM) | 1.7 µg/mL (≈ 3.29 µM) |
| C=C(C)C(O)CC[C@@H](C)[C@@H]1[C@@H](O)C[C@]2(C)C3=CC[C@H]4C(C)(C)C(=O)CC[C@]4(C)[C@H]3CC[C@@]12C (stereo partly specified) [MELIASTATIN 5] | inactive | 9.5 µg/mL (≈ 20.8 µM) | 16 µg/mL (≈ 35 µM) | 1.7 µg/mL (≈ 3.72 µM) |
| COC(=O)[C@H](CCC=C(C)C)[C@@H]1[C@@H](O)C[C@]2(C)C3=CC[C@H]4C(C)(C)C(=O)CC[C@]4(C)[C@H]3CC[C@@]12C [METHYL KULONATE] | inactive | 14.6 µg/mL (≈ 30.1 µM) | 0.41 µg/mL (≈ 0.846 µM) | 1.7 µg/mL (≈ 3.51 µM) |
